This note sets out measurements from patent US5268465A, “Purification and molecular cloning of nitric oxide synthase” (The Johns Hopkins University, priority 1991, dated 1993).

Data set [1] has as its target T1, NO synthase (Rattus norvegicus, UniProt P0DP29+P29476). The data set is described as follows: NO synthase activity, conversion of [3H]arginine to [3H]citrulline, purified enzyme. The class given is biochemical. The settings on record: for EC50: read-out: EC50 for enhancement/stimulation of enzyme activity; for IC50: read-out: Calmodulin antagonists, IC50.
The target in data set [2] is T2, NO synthase activity in crude brain supernatant preparations (Rattus norvegicus, UniProt P29476).
T2 construct: not recombinant
Kind of data set: NO synthase activity, conversion of [3H]arginine to [3H]citrulline, crude cerebellar/brain supernatant preparations. It counts as biochemical. Here is the method: (§1) This example describes the method by which NOS activity was assayed. […] After incubation for 5 min at 22° C., assays were terminated with 2 ml of 20 mM Hepes, pH 5.5/2 mM EDTA, and were applied to 1-ml columns of Dowex A[…]-8 (Na^+ form), which were eluted with 2 ml of water. [^3 H]Citrulline was quantified by liquid scintillation spectroscopy of the 4-ml flow-through.

Data set [3] addresses T1, NO synthase. The data set is described as follows: Effects of varying calcium, calmodulin and NADPH on NO synthase activity. The class given is biochemical. The protocol: After incubation for 5 min at 22° C., assays were terminated with 2 ml of 20 mM Hepes, pH 5.5/2 mM EDTA, and were applied to 1-ml columns of Dowex A[…]-8 (Na^+ form), which were eluted with 2 ml of water. [^3 H]Citrulline was quantified by liquid scintillation spectroscopy of the 4-ml flow-through.

Data set [4] deals with T3, NO synthase (Rattus norvegicus, UniProt P29476).
T3 construct: Eighteen rat cerebella were homogenized; from tissue; host or cells: rat cerebella (supernatant, DEAE eluate, 2',5'-ADP agarose eluate)
The data set is described as follows: Restoration of enzyme activity of DEAE eluate fractions. The class given is biochemical. The protocol:
Eighteen rat cerebella were homogenized in 100 ml of ice-cold buffer A [50 mM Tris-HCl, pH 7.4/1 mM EDTA/antipain (10 mg/liter)/leupeptin (10 mg/liter)/soybean trypsin inhibitor (10 mg/liter)/pepstatin (10 mg/liter)/chymostatin (10 mg/liter)/phenylmethylsulfonyl fluoride (100 mg/liter)], and all subsequent procedures were carried out at 4° C. The homogenate was centrifuged at 20,000×g for 15 min, and the supernatant was loaded at 2 ml/min onto a 20-ml column of diethylminoethyl (DEAE) equilibrated with buffer A. The column was washed with 50 ml of buffer A and eluted with a 100-ml linear gradient of 0-400 mM NaCl in buffer A. Fractions (2.5 ml) were assayed for enzyme activity.
In our preliminary efforts to purify NO synthase, we observed that enzymatic activity adheres to a DEAE column and can be eluted by 1M NaCl. […] Since NO formation requires Ca^2+, we speculated that calmodulin might be involved. […] NO synthase activity elutes in one sharp, major peak followed by a smaller peak of activity, which is observed reproducibly in multiple experiments.

The target of data set [5] is T3, NO synthase. Kind of data set: Storage stability of NO synthase activity. It counts as physicochemical. Here is the method:
After incubation for 5 min at 22° C., assays were terminated with 2 ml of 20 mM Hepes, pH 5.5/2 mM EDTA, and were applied to 1-ml columns of Dowex AG502X-8 (Na^+ form), which were eluted with 2 ml of water. [^3 H]Citrulline was quantified by liquid scintillation spectroscopy of the 4-ml flow-through.
The purified enzyme is unstable. When stored at 0° C., 50% of the enzyme activity is lost in 2 hr, whereas the crude supernatant preparation loses 50% activity at 0° C. in 2 days. Stability is enhanced by storing the enzyme in bovine serum albumin (1 mg/ml)/20% (vol/vol) glycerol at -70° C. When stored in this way, the enzyme loses<50%activity in 7 days.

Data set [6] concerns the target NO synthase activity in crude brain supernatant preparations (Rattus norvegicus, UniProt P0DP29). Kind of data set: NO synthase activity, conversion of [3H]arginine to [3H]citrulline, crude cerebellar/brain supernatant preparations. The class given is biochemical. The note with it: crude brain supernatant preparations; read-out: IC50, inhibition of NO synthase activity. The protocol: as §1

In data set [7] the target is T3, NO synthase. The data set is described as follows: Specific activity of fractions during purification of NO synthase. The note with it: typical purification, repeated five times. The class given is biochemical.
Experimental: After a 10-min incubation, the suspension was poured into a fritted column, which was washed with 50 ml of buffer B with 0.5M NaCl and then with 20 ml of buffer B alone.
Enzyme was purified and fractions were assayed as described.

T1 sequence (P29476 whole entry, one chain of several): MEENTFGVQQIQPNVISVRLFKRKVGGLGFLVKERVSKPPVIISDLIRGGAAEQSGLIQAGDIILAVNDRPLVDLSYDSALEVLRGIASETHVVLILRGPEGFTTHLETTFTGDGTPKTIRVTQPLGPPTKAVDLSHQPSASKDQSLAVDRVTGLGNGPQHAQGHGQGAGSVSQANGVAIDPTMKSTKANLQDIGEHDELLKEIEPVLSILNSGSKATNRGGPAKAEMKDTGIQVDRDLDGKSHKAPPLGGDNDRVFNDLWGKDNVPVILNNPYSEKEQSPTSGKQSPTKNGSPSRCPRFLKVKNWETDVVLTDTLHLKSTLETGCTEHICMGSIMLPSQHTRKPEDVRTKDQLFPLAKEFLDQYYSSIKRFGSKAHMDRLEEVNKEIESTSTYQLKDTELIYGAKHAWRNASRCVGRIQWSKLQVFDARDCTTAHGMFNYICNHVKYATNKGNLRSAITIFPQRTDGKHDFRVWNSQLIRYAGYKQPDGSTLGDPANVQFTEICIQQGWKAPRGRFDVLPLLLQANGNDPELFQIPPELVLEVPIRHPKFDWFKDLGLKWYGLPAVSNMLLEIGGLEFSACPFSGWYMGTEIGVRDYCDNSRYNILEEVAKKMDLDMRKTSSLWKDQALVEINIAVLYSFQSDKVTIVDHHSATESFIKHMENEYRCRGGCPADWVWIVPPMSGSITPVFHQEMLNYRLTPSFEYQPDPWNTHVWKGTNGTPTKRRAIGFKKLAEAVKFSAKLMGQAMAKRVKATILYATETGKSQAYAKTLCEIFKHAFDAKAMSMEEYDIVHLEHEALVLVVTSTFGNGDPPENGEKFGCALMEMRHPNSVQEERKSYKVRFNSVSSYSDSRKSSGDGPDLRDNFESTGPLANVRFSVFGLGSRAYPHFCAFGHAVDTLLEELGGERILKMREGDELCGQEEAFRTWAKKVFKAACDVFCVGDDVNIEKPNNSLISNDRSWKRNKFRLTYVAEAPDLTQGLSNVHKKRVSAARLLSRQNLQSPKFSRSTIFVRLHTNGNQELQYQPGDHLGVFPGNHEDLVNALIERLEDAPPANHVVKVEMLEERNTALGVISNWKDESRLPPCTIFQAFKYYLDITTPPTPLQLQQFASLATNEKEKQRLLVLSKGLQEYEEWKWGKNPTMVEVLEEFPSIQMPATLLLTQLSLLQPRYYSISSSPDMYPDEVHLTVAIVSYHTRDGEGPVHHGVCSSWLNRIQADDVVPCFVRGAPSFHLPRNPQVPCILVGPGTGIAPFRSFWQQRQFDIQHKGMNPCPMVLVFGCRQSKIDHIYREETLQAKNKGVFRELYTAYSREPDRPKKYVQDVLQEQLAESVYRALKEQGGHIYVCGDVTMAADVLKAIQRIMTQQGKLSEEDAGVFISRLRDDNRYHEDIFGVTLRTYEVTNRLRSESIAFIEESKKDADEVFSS

Turning to `[Ca+2]` [Ca^2+, calcium], at NO synthase [1], the EC50 turned out to be 200 nM. Also, the “EC50 compared with crude preparations” value in data set [2] (crude preparations) is “the same in the pure and crude preparations”. Besides, the “Concentration of maximal enhancement of activity” value on NO synthase [3] came out at 1 µM. In addition, on NO synthase [3] (absence of NADPH), the “Stimulation in the absence of NADPH” value was “fails to stimulate NO synthase activity”. Besides, on NO synthase [3] (concentrations exceeding 100 μM Ca2+), the “Activity at high Ca2+” value is reported as “some reduction in activity”.
As to Calmodulin, at NO synthase [1], the EC50 worked out at 10 nM. Further, in data set [2] (crude cerebellar supernatant preparations, calmodulin 1 μM), the “Influence of added calmodulin on enzyme activity” value is reported as “no influence on enzyme activity”. In addition, the “Stimulation of NO synthase activity” value with NO synthase [3] (FIG. 2A) is listed as “extremely potent stimulator of NO synthase activity”. Moreover, the “Effect of addition to DEAE eluate fractions on enzyme activity” value with NO synthase [4] was “restores enzyme activity”. Further, in the data set with NO synthase [5] (presence of calmodulin), the “Effect on stability of the enzyme” value is recorded as “Stability is also enhanced”.
What is called IC50 is the concentration that inhibits the measured activity by half. In the case of `NCCCCCCNS(=O)(=O)c1cccc2ccccc12` [W-5], the IC50 amounted to 25 µM on NO synthase [1] and 50 µM in data set [6].
Take `NCCCCNS(=O)(=O)c1ccc2c(Cl)cccc2c1` [W-13]: the values for the half-maximal inhibitory concentration (IC50) (at NO synthase [1]; in data set [6]) were 70 µM and 25 µM, respectively.
Consider “NO synthase: calmodulin-dependent nitric oxide synthase purified to homogeneity from rat cerebella by DEAE and 2',5'-ADP agarose chromatography”, for which, in the data set with NO synthase [1] (Table 2), the Vmax is given as 0.96 μmol per min per mg of protein. In the data set with NO synthase [7], this compound gave a Specific activity of 960 nmol/mg/min. In addition, the “Enzyme activity lost on storage” value with NO synthase [5] (bovine serum albumin (1 mg/ml)/20% (vol/vol) glycerol at -70° C., 7 days) is listed as < 50%. Besides, the “Time to loss of 50% of the enzyme activity” value with NO synthase [5] (stored at 0° C.) amounted to 2 h.
